The results in this text go back to patent US20230018989A1, “INHIBITING THE RNA […] METTL3 OR ITS INTERACTION WITH EIF3H TO […] ONCOGENE TRANSLATION AND TUMORIGENESIS” (Children's Medical Center Corporation, priority 2019, published 2023).

Assay [1] addresses eIF3h (endogenous, in cells) (human) (UniProt O15372). The experiment in a line: cell-based or functional assay.
Assay [2] concerns A549 cells. The experiment in a line: MTS cell proliferation assay upon JQ1 treatment. In kind it is cell-based, human. As to conditions: 500 nM JQ1; METTL3 depleted A549 cells compared with control A549 cells. The method, then:
FIGS. 7A-7N. METTL3 promotes translation of a large subset of mRNAs. (FIGS. 7A-7E) Global profiling of METTL3 target genes in HeLa. Cytoplasmic extracts from control or METTL3 depleted cells were subjected to sucrose gradient centrifugation. Total RNA, RNA from sub-polysome fractions and RNA from polysome fractions were analyzed by RNA-seq. (FIG. 7A) Peak analysis of polysome profiling. (FIG. 7B) Scatter plot of RNA-Seq data in METTL3 knockdown (shMETTL3) and control (shGFP) HeLa cells. Average read number from two individual METTL3 knockdown is plotted on the y-axis. (FIG. 7C) Scatter plot of RNA-Seq data in shMETTL3 and shGFP HeLa cells. Average read number from two shMETTL3 samples were calculated by the ratio of polysome fraction to the read number in the sub-polysome fraction and plotted on the y-axis. […] (FIG. 7N) Quantification of apoptotic cells, numbers represent ratio between death cells in JQ1 and DMSO treatments. […]
Cell proliferation and apoptosis assays were performed as described previously^8. […] Absorbances at 490 nm were measured using CellTiter 96 AQueous One Solution Cell Proliferation Assay kit (Promega) on day 2, day 4, and day 6 to measure the cellular proliferation. The numbers of apoptotic cells were quantified by flow cytometric assays using Annexin V-FITC Apoptosis Detection Kit (BioVision) five days after 500 nM of JQ1 treatment and cell seeding.
For orientation: Formazan colour is commonly taken as a measure of viable cells.

Assay [3] relates to A549 cells. The experiment in a line: Annexin V/PI apoptosis assay (FACS) upon JQ1 treatment. The format is cell-based, human. The settings on record: 500 nM JQ1, five days; METTL3 depleted A549 cells compared with control A549 cells. The method, then:
FIGS. 7A-7N. METTL3 promotes translation of a large subset of mRNAs. (FIGS. 7A-7E) Global profiling of METTL3 target genes in HeLa. Cytoplasmic extracts from control or METTL3 depleted cells were subjected to sucrose gradient centrifugation. Total RNA, RNA from sub-polysome fractions and RNA from polysome fractions were analyzed by RNA-seq. (FIG. 7A) Peak analysis of polysome profiling. (FIG. 7B) Scatter plot of RNA-Seq data in METTL3 knockdown (shMETTL3) and control (shGFP) HeLa cells. Average read number from two individual METTL3 knockdown is plotted on the y-axis. (FIG. 7C) Scatter plot of RNA-Seq data in shMETTL3 and shGFP HeLa cells. Average read number from two shMETTL3 samples were calculated by the ratio of polysome fraction to the read number in the sub-polysome fraction and plotted on the y-axis. (FIG. 7D) Venn diagram showing the overlap of 2-fold less translated genes and METTL3 PAR-CLIP data. […] (FIG. 7N) Quantification of apoptotic cells, numbers represent ratio between death cells in JQ1 and DMSO treatments. […]
FIGS. 9A-9E. […] (FIG. 9B) Density plot reflects the distribution of changes in percent spliced In (APSI) values and according p-values for alternative splicing events detected by rMATs v3.2.5. […] (FIG. 9E) Annexin V/PI staining of METTL3 knockdown and control A549 cells upon JQ1 treatment that was analyzed by FACS. […]

Chain of UniProt O15372 (O15372 whole entry): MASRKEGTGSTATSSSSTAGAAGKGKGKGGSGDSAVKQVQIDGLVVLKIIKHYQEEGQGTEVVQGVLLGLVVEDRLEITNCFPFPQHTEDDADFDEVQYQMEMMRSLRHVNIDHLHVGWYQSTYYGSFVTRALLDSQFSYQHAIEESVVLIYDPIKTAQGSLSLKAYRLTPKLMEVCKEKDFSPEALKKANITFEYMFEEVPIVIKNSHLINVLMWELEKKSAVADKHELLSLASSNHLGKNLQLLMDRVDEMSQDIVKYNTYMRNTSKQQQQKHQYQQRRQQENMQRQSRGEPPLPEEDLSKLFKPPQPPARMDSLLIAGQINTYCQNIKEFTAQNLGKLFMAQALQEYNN

As to “FLAG-MS2-METTL3 (from UniProt Q86U44 1-580)”, the translation efficiency of reporter mRNA (tethering assay, FLuc-MS2bs, with control siRNA or eIF3h knockdown) in assay [1] turned out to be 2 fold.
With `Cc1sc2c(c1C)C(c1ccc(Cl)cc1)=N[C@@H](CC(=O)OC(C)(C)C)c1nnc(C)n1-2` [JQ1], the “cellular proliferation (OD490), JQ1 versus DMSO” value with A549 cells [2] is given as “stronger proliferation defect”. The “number of apoptotic cells, JQ1 versus DMSO” value with A549 cells [3] is listed as “increased the number of apoptotic cells”.
